Test results published in article PMC5852498, “Lactomycins A–C, Dephosphorylated Phoslactomycin Derivatives That Inhibit Cathepsin B, from the Marine-Derived Streptomyces sp. ACT232” (Marine Drugs, 2018).
Like-named read-outs stand apart in the source and are kept apart here.

Target: T1, cathepsin B (Bos taurus, UniProt P07688)
T1 construct: gene CTSB; cathepsin B from bovine spleen (Sigma C6286)
Test: fluorogenic enzyme assay with Z-Arg-Arg-AMC, pH […] °C
Type: biochemical

Row | SMILES | IC50 (read-out: IC50) | IC50
1 | CC[C@H]1C=CC(=O)O[C@H]1/C=C/[C@](O)(CCN)[C@H](O)C[C@@H](O)/C=C\C=C/[C@@H]1CCC[C@H](O)C1 [compound 2, Lactomycin B] | 0.8 µM | –
2 | CC[C@H]1C=CC(=O)O[C@H]1/C=C/[C@@](C)(O)[C@H](O)C[C@@H](O)/C=C\C=C/[C@@H]1CCC[C@H](O)C1 [compound 3, Lactomycin C] | – | 1.6 µM
3 | CC[C@H]1C=CC(=O)O[C@H]1/C=C/[C@](O)(CCO)[C@H](O)C[C@@H](O)/C=C\C=C/[C@@H]1CCC[C@H](O)C1 [compound 1, Lactomycin A] | 4.5 µM | –
